Source: patent publication US7928078B2, “Conjugates of immune cell specific macrolide compounds with anti-inflammatory compounds for improved cellular targeting of anti-inflammatory therapy” (GlaxoSmithKline Istrazivacki Centar Zagreb D.O.O., priority 2001, dated 2011)

Tests used:
[1] = biological target: T1, alpha isoform of human glucocorticoid receptor (Homo sapiens, UniProt P04150); assay: Assay of binding to the human glucocorticoid receptor ([3H] dexamethasone competition in transfected COS-1 cells); settings: 24 nM [3H] dexamethasone
T1 construct: expressed in transfected cells; host or cells: COS-1 cells, transient transfection with pcDNA3.1 hygro(+) carrying the GR alpha cDNA
T1 sequence (P04150 1-777): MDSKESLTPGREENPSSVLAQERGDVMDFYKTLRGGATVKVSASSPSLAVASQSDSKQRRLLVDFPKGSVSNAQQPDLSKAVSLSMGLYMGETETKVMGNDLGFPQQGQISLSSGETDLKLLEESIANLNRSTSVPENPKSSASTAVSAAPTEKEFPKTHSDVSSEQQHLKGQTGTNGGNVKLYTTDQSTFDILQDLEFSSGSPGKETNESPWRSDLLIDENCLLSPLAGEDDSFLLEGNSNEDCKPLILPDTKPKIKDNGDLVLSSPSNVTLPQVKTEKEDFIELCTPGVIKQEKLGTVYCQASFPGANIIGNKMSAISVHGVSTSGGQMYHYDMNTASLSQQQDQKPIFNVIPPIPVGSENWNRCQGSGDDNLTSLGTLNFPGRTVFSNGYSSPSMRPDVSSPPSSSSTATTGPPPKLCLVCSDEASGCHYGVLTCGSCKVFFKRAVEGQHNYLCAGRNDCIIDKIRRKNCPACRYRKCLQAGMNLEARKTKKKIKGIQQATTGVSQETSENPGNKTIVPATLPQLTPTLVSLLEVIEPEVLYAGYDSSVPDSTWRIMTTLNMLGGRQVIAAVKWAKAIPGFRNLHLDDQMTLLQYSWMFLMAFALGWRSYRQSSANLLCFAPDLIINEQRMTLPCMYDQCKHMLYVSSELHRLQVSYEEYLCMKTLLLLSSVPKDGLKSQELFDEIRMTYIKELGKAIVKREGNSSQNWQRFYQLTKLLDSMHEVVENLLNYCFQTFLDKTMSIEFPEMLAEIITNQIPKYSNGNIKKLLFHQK
Description: Assay of Binding to the Human Glucocorticoid Receptor
The gene for alpha isoform of human glucocorticoid receptor was cloned by reverse polymerase chain reaction. The total RNA was isolated from human peripheral blood lymphocites according to the instructions of the manufacturer (Qiagen), transcripted into cDNA with AMV reverse transcriptase (Roche) and the gene was multiplied by specific primers
The obtained reaction product was cloned into XhoI/BamHI site of Bluescript KS plasmid (Stratagene), subjected to sequencing by dideoxy fluorescent method with M13 and M13 rev primers (Mycrosynth) and then it was cloned into XhoI/BamHI site of pcDNA3.1 hygro(+)plasmid (Invitrogen). 1×10^5 COS-1 cells were seeded onto a 12-well plate (Falcon) in DMEM medium (Life Technologies) with 10% FBS (Biowhitaker) and cultivated up to a 70% confluence at 37° C. in an atmosphere with 5% CO2. The medium was removed and 1 μg of DNA, 7 μl of PLUS reagent and 2 μl of Lipofectamine (Life Technologies) in 500 μl DMEM were added per well. The cells were incubated at 37° C. in an atmosphere with 5% CO2 and after 5 hours the same volume of 20% FBS/DMEM was added. After 24 hours the medium was completely changed. 48 hours after the transfection, the test compounds in different concentrations and 24 nM [^3H] dexamethasone (Pharmacia) in DMEM medium were added. The cells were incubated for 90 minutes at 37° C. in an atmosphere with 5% CO2, washed three times with PBS buffer (Sigma), cooled to 4° C. (pH=7.4) and then lyzed in Tris buffer (pH=8.0) (Sigma) with 0.2% SDS (Sigma). After the addition of UltimaGold XR (Packard) scintillation liquid, the residual radioactivity was read in a Tricarb (Packard) β-scintillation counter.

[2] = system: mouse T-cell hybridoma 13; assay: Assay of inhibition of mouse T-cell hybridoma 13 proliferation as a result of apoptose induction; format: cell-based; settings: [3H] thymidine incorporation
Description: Assay of Inhibition of Mouse T-Cell Hybridoma 13 Proliferation as a Result of Apoptose Induction
In a 96-well plate triplicates of test steroid dilution in RPMI medium (Immunoloski zavod) with […] were performed. To the solutions of compounds 20 000 cells per well were added and incubated overnight at 37° C. in an atmosphere with 5% CO2, then 1 μCi of [^3H] thymidine (Pharmacia) was added and it was incubated for additional 3 hours. The cells were harvested by sucking over GF/C filter (Packard). Onto each well 30 μl of Microscynt O scintillation liquid (Packard) were added and the incorporated radioactivity was measured on a β-scintillation counter (Packard). The specifity of apoptose induction by glucocorticoids was proven by antagonising the proliferation inhibition with mifepristone (Sigma).

[3] = system: interleukin-2 production induced by the stimulation via CD3 receptor; assay: Assay of inhibition of interleukin-2 production; format: cell-based, mouse
Description: Assay of Inhibition of Interleukin-2 Production
Onto a 96-well plate (Nunc) 15 ng of 2C11 antibodies (Pharmingen) per well were added and left to adsorb in PBS buffer (pH=7.4) overnight at 4° C. PBS was removed, the plate was washed with RPMI medium and then 50,000 cells per well were added and incubated in the medium with and without a dilution of the test compounds. The concentration of IL-2 in the supernatant was measured by ELISA specific for mouse IL-2 (R&D Systems).

| melting point | Compound | also measured |
| --- | --- | --- |
| 194 to 202 °C | CC[C@H]1OC(=O)[C@H](C)[C@@H](O[C@@H]2C[C@](C)(OC)[C@H](O)C(C)O2)[C@H](C)[C@@H](O[C@@H]2O[C@H](C)C[C@@H](N(C)C)[C@H]2O)[C@](C)(O)C[C@@H](C)CN(CCCNC(=O)[C@@]2(O)[C@H](C)CC3C4C[C@H](F)C5=CC(=O)C=C[C@]5(C)[C@@]4(Cl)[C@@H](O)C[C@@]32C)[C@H](C)[C@@H](O)[C@]1(C)O (stereo partly drawn) |  |
| 178 °C | CC[C@H]1OC(=O)[C@H](C)[C@@H](O[C@@H]2C[C@](C)(OC)[C@H](O)C(C)O2)[C@H](C)[C@@H](O[C@@H]2O[C@H](C)C[C@@H](N(C)C)[C@H]2O)[C@](C)(O)C[C@@H](C)CN(CCCNC(=O)[C@@]23OC(C)(C)O[C@@H]2CC2C4C[C@H](F)C5=CC(=O)C=C[C@]5(C)[C@@]4(F)[C@@H](O)C[C@@]23C)[C@H](C)[C@@H](O)[C@]1(C)O (stereo partly drawn) |  |
| 130 to 132 °C | CC[C@H]1OC(=O)C(C)[C@@H](O)[C@H](C)[C@@H](O[C@@H]2O[C@H](C)C[C@@H](N(C)C)[C@H]2O)[C@](C)(O)C[C@@H](C)CN(CCCNC(=O)[C@@]2(O)[C@H](C)CC3C4C[C@H](F)C5=CC(=O)C=C[C@]5(C)[C@@]4(Cl)[C@@H](O)C[C@@]32C)[C@H](C)[C@@H](O)[C@]1(C)O (stereo partly drawn) |  |
| 202 to 204 °C | CC[C@H]1OC(=O)[C@H](C)[C@@H](O)[C@H](C)C(O[C@@H]2O[C@H](C)C[C@@H](N(C)C)[C@H]2O)[C@](C)(O)C[C@@H](C)CN(CCCNC(=O)[C@@]2(O)[C@H](C)CC3C4C[C@H](F)C5=CC(=O)C=C[C@]5(C)C4[C@@H](O)C[C@@]32C)[C@H](C)[C@@H](O)[C@]1(C)O (stereo partly drawn) |  |
| 182 °C | CC[C@H]1OC(=O)[C@H](C)[C@@H](O)[C@H](C)[C@@H](O[C@@H]2O[C@H](C)C[C@@H](N(C)C)[C@H]2O)[C@](C)(O)C[C@@H](C)CN(CCCNC(=O)[C@@]2(O)[C@H](C)CC3C4C[C@H](F)C5=CC(=O)C=C[C@]5(C)[C@@]4(F)[C@@H](O)C[C@@]32C)[C@H](C)[C@@H](O)[C@]1(C)O (stereo partly drawn) |  |
| 160 to 161 °C | CC[C@H]1OC(=O)[C@H](C)[C@@H](O)[C@H](C)[C@@H](O[C@@H]2O[C@H](C)C[C@@H](N(C)C)[C@H]2O)[C@](C)(O)C[C@@H](C)CN(CCCNC(=O)[C@@]2(O)CCC3C4CCC5=CC(=O)CC[C@]5(C)C4[C@@H](O)C[C@@]32C)[C@H](C)[C@@H](O)[C@]1(C)O (stereo partly drawn) |  |
| 260 to 265 °C | CC[C@H]1OC(=O)[C@H](C)[C@@H](O)[C@H](C)[C@@H](O[C@@H]2O[C@H](C)C[C@@H](N(C)C)[C@H]2O)[C@](C)(O)C[C@@H](C)CN(CCCNC(=O)[C@@]2(O)[C@H](C)CC3C4CCC5=CC(=O)C=C[C@]5(C)[C@@]4(F)[C@@H](O)C[C@@]32C)[C@H](C)[C@@H](O)[C@]1(C)O (stereo partly drawn) |  |
| 174 to 175 °C | CC[C@H]1OC(=O)[C@H](C)[C@@H](OC(=O)CCCCOC(=O)[C@@]2(O)[C@H](C)CC3C4CCC5=CC(=O)C=C[C@]5(C)[C@@]4(F)[C@@H](O)C[C@@]32C)[C@H](C)[C@@H](O[C@@H]2O[C@H](C)C[C@@H](N(C)C)[C@H]2OC(C)=O)[C@](C)(O)C[C@@H](C)CN(C)[C@H](C)[C@@H](O)[C@]1(C)O (stereo partly drawn) |  |
| 159 to 160 °C | CC[C@H]1OC(=O)[C@H](C)[C@@H](O[C@@H]2C[C@](C)(OC)[C@H](O)C(C)O2)[C@H](C)[C@@H](O[C@@H]2O[C@H](C)C[C@@H](N(C)C)[C@H]2OC(=O)CCCCOC(=O)[C@@]2(O)[C@H](C)CC3C4C[C@H](F)C5=CC(=O)C=C[C@]5(C)[C@@]4(F)[C@@H](O)C[C@@]32C)[C@](C)(O)C[C@@H](C)CN(C)[C@H](C)[C@@H](O)[C@]1(C)O (stereo partly drawn) |  |
| 161 to 168 °C | CC[C@H]1OC(=O)[C@H](C)[C@@H](O[C@@H]2C[C@](C)(OC)[C@H](O)C(C)O2)[C@H](C)[C@@H](O[C@@H]2O[C@H](C)C[C@@H](N(C)C)[C@H]2OC(=O)CCCCOC(=O)[C@@]2(O)[C@H](C)CC3C4CCC5=CC(=O)C=C[C@]5(C)[C@@]4(F)[C@@H](O)C[C@@]32C)[C@](C)(O)C[C@@H](C)CN(C)[C@H](C)[C@@H](O)[C@]1(C)O (stereo partly drawn) |  |
| 91 to 99 °C | CC[C@H]1OC(=O)[C@H](C)[C@@H](O[C@@H]2C[C@](C)(OC)[C@H](O)C(C)O2)[C@H](C)[C@@H](O[C@@H]2O[C@H](C)C[C@@H](N(C)C)[C@H]2OC(=O)CCCCOC(=O)[C@@]2(O)[C@H](C)CC3C4C[C@H](F)C5=CC(=O)C=C[C@]5(C)[C@@]4(Cl)[C@@H](O)C[C@@]32C)[C@](C)(O)C[C@@H](C)CN(C)[C@H](C)[C@@H](O)[C@]1(C)O (stereo partly drawn) |  |
| 170 °C | CC[C@H]1OC(=O)[C@H](C)[C@@H](O)[C@H](C)[C@@H](O[C@@H]2O[C@H](C)C[C@@H](N(C)C)[C@H]2OC(=O)CCCCOC(=O)[C@@]2(O)[C@H](C)CC3C4CCC5=CC(=O)C=C[C@]5(C)[C@@]4(F)[C@@H](O)C[C@@]32C)[C@](C)(O)C[C@@H](C)CN(C)[C@H](C)[C@@H](O)[C@]1(C)O (stereo partly drawn) |  |
| 145 to 151 °C | CC[C@H]1OC(=O)[C@H](C)[C@@H](O)[C@H](C)[C@@H](O[C@@H]2O[C@H](C)C[C@@H](N(C)C)[C@H]2OC(=O)CCCCOC(=O)[C@@]2(O)[C@H](C)CC3C4C[C@H](F)C5=CC(=O)C=C[C@]5(C)C4[C@@H](O)C[C@@]32C)[C@](C)(O)C[C@@H](C)CN(C)[C@H](C)[C@@H](O)[C@]1(C)O (stereo partly drawn) |  |
| 175 to 178 °C | CC[C@H]1OC(=O)[C@H](C)[C@@H](O[C@@H]2C[C@](C)(OC)[C@H](O)C(C)O2)[C@H](C)[C@@H](O[C@@H]2O[C@H](C)C[C@@H](N(C)C)[C@H]2O)[C@](C)(O)C[C@@H](C)CN(CCCNC(=O)[C@@]2(O)[C@H](C)CC3C4C[C@H](F)C5=CC(=O)C=C[C@]5(C)C4[C@@H](O)C[C@@]32C)[C@H](C)[C@@H](O)[C@]1(C)O (stereo partly drawn) |  |

| Compound | melting point | also measured |
| --- | --- | --- |
| CC[C@H]1OC(=O)[C@H](C)[C@@H](O)[C@H](C)[C@@H](O[C@@H]2O[C@H](C)C[C@@H](N(C)C)[C@H]2OC(=O)CCCCOC(=O)[C@@]2(O)[C@H](C)CC3C4C[C@H](F)C5=CC(=O)C=C[C@]5(C)[C@@]4(Cl)[C@@H](O)C[C@@]32C)[C@](C)(O)C[C@@H](C)CN(C)[C@H](C)[C@@H](O)[C@]1(C)O (stereo partly drawn) [Compound 27] | 130 to 132 °C | competition with radioactive dexamethasone in the binding site on the glucocorticoid receptor [1]: able to compete with radioactive dexamethasone; inhibition of cell hybridoma 13 proliferation [2]: demonstrated an inhibition; inhibition of interleukin-2 production [3]: demonstrate an inhibition |
